# Reference: ChEMBL document CHEMBL1122254, “Sulfonyliminoimidazolidines. A new class of oral hypoglycemic agents. 1. 1-[[p-[2-(acylamino)ethyl]phenyl]sulfonyl]-2-iminoimidazolidines” (1983)
# Assays:
# Format in all cases: functional
# Rattus norvegicus [1] = experiment: Compound evaluated for hypoglycemic activity by lowering blood glucose in streptozotocin-diabetic rats by 20% after oral administration; Highest dose tested; Inactive(less than 10% blood sugar decrease)
# Rattus norvegicus [2] = experiment: Hypoglycemic activity by lowering blood glucose in normal rats by 20% after oral administration.
# Rattus norvegicus [3] = experiment: Compound evaluated for hypoglycemic activity by lowering blood glucose in normal rats by 20% after oral administration; inactive (less than 10% blood sugar decrease)
# Rattus norvegicus [4] = experiment: Compound evaluated for hypoglycemic activity by lowering blood glucose in normal rats by 20% after oral administration; Inactive (less than 10% blood sugar decrease)
# Rattus norvegicus [5] = experiment: Compound evaluated for hypoglycemic activity by lowering blood glucose in normal rats by 20% after oral administration
# Rattus norvegicus [6] = experiment: Compound evaluated for hypoglycemic activity by lowering blood glucose in streptozotocin-diabetic rats by 20% after oral administration; Inactive(less than 10% blood sugar decrease)
# Rattus norvegicus [7] = experiment: Compound evaluated for hypoglycemic activity by lowering blood glucose in streptozotocin-diabetic rats by 20% after oral administration; Highest dose tested
# Rattus norvegicus [8] = experiment: Hypoglycemic activity by lowering blood glucose in normal rats by 50% after oral administration.
# Rattus norvegicus [9] = experiment: Compound evaluated for hypoglycemic activity by lowering blood glucose in normal rats by 20% after oral administration (highest dose tested)
# Rattus norvegicus [10] = experiment: Compound evaluated for hypoglycemic activity by lowering blood glucose in normal rats by 50% after oral administration
# Rattus norvegicus [11] = experiment: Compound evaluated for hypoglycemic activity by lowering blood glucose in streptozotocin-diabetic rats by 20% after oral administration
# Rattus norvegicus [12] = experiment: Compound evaluated for hypoglycemic activity by lowering blood glucose in normal rats by 50% after oral administration; inactive(less than 10% blood sugar decrease)
# Rattus norvegicus [13] = experiment: Compound evaluated for hypoglycemic activity by lowering blood glucose in normal rats by 20% after oral administration; highest dose tested;inactive(less than 10% blood sugar decrease)
compound,measurement,setting,value
C[S+]([O-])CC(=O)NCCc1ccc(S(=O)(=O)N2CCN(C3CCCCC3)C2=N)cc1 (stereo not given),ED20,Rattus norvegicus [1],> 0.66 mmol/kg
same,ED20,Rattus norvegicus [2],0.12 mmol/kg
Cc1ncsc1C(=O)NCCc1ccc(S(=O)(=O)N2CCN(C3CCCCC3)C2=N)cc1,ED20,Rattus norvegicus [3],> 0.22 mmol/kg
CCC[S+]([O-])CC(=O)NCCc1ccc(S(=O)(=O)N2CCN(C3CCCCC3)C2=N)cc1 (stereo not given),ED20,Rattus norvegicus [1],> 0.62 mmol/kg
same,ED20,Rattus norvegicus [2],0.071 mmol/kg
COCC(=O)NCCc1ccc(S(=O)(=O)N2CCN(C3CCCCC3)C2=N)cc1,ED20,Rattus norvegicus [4],> 0.92 mmol/kg
N=C1N(C2CCCCC2)CCN1S(=O)(=O)c1ccc(CCNC(=O)c2ccc[n+]([O-])c2)cc1,ED20,Rattus norvegicus [5],0.042 mmol/kg
same,ED20,Rattus norvegicus [6],> 0.64 mmol/kg
CC[S+]([O-])CCC(=O)NCCc1ccc(S(=O)(=O)N2CCN(C3CCCCC3)C2=N)cc1 (stereo not given),ED20,Rattus norvegicus [7],> 0.62 mmol/kg
same,ED20,Rattus norvegicus [2],0.031 mmol/kg
same,ED50,Rattus norvegicus [8],200 µmol/kg
N=C1N(C2CCCCC2)CCN1S(=O)(=O)c1ccc(CCNC(=O)c2ccccn2)cc1,ED20,Rattus norvegicus [9],> 0.83 mmol/kg
CCCCNC(=O)NS(=O)(=O)c1ccc(C)cc1 [TOLBUTAMIDE],ED20,Rattus norvegicus [5],0.056 mmol/kg
same,ED20,Rattus norvegicus [6],> 1 mmol/kg
same,ED50,Rattus norvegicus [10],300 µmol/kg
N=C1N(C2CCCCC2)CCN1S(=O)(=O)c1ccc(CCNC(N)=O)cc1,ED20,Rattus norvegicus [1],> 0.76 mmol/kg
same,ED20,Rattus norvegicus [2],0.39 mmol/kg
CN(C)C(C(=O)NCCc1ccc(S(=O)(=O)N2CCN(C3CCCCC3)C2=N)cc1)c1ccccc1 (stereo not given),ED20,Rattus norvegicus [7],> 0.55 mmol/kg
same,ED20,Rattus norvegicus [2],0.037 mmol/kg
same,ED50,Rattus norvegicus [8],170 µmol/kg
N=C1N(C2CCCCC2)CCN1S(=O)(=O)c1ccc(CCNC(=O)c2ccccc2)cc1,ED20,Rattus norvegicus [5],0.021 mmol/kg
same,ED50,Rattus norvegicus [10],200 µmol/kg
N=C(N)NC(=N)NCCc1ccccc1 [PHENFORMIN],ED20,Rattus norvegicus [11],0.16 mmol/kg
same,ED50,Rattus norvegicus [12],> 1000 µmol/kg
same,ED20,Rattus norvegicus [13],> 1 mmol/kg
